Experimental data from ChEMBL document CHEMBL4842321, “Novel benzenesulfonamides aryl and arylsulfone conjugates adopting tail/dual tail approaches: Synthesis, carbonic anhydrase inhibitory activity and molecular modeling studies” (Eur J Med Chem, 2021).

Legend:
[1] = biological target: Carbonic anhydrase 9 (Homo sapiens, UniProt Q16790); assay: Inhibition of recombinant human carbonic anhydrase 9 by stopped-flow CO2 hydration assay
[2] = system: MCF7; assay: Antiproliferation activity against human MCF7 cells assessed as reduction in cell viability under hypoxic conditions by MTT assay
[3] = system: MCF-10A; assay: cells; conditions: Homo sapiens
Description: Antiproliferation activity against human MCF-10A cells assessed as reduction in cell viability under hypoxic conditions by MTT assay

[4] = biological target: Carbonic anhydrase 1 (Homo sapiens, UniProt P00915); assay: Inhibition of recombinant human carbonic anhydrase 1 by stopped-flow CO2 hydration assay
Chain of Carbonic anhydrase 1 (P00915 whole entry): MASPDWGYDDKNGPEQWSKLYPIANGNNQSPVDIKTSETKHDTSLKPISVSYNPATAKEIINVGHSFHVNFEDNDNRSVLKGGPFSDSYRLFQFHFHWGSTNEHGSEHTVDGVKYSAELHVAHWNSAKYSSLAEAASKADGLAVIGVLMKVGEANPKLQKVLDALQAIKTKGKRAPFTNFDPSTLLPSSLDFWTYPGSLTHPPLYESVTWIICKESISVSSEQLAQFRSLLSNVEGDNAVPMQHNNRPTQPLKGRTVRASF

[5] = biological target: Carbonic anhydrase 2 (Homo sapiens, UniProt P00918); assay: Inhibition of recombinant human carbonic anhydrase 2 by stopped-flow CO2 hydration assay
[6] = biological target: Carbonic anhydrase 4 (Homo sapiens, UniProt P22748); assay: Inhibition of recombinant human carbonic anhydrase 4 by stopped-flow CO2 hydration assay
Chain of Carbonic anhydrase 4 (P22748 whole entry): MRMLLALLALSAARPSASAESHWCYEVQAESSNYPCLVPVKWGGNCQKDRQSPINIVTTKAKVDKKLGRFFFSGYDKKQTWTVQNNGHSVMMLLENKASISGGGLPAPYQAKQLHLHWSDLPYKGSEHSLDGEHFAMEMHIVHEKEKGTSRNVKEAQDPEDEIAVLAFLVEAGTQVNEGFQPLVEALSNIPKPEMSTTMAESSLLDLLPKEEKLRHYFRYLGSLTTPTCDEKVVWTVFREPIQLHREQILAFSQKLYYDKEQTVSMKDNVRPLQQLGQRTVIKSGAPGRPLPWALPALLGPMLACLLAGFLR

| SMILES | Ki [1] [µM] | IC50 [2] [µM] | IC50 [3] [µM] | Ki [4] [µM] | Ki [5] [µM] | Ki [6] [µM] |
| --- | --- | --- | --- | --- | --- | --- |
| NS(=O)(=O)c1ccc(N/C=C(\C(=O)c2ccc(Br)cc2)S(=O)(=O)c2ccccc2)cc1 | 3.03 | 62.7 | 20.4 |  |  |  |
| NS(=O)(=O)c1ccc(N/C=C(\C(=O)c2ccc(Cl)cc2)S(=O)(=O)c2ccccc2)cc1 | 3.01 | 15.1 | 28 |  |  |  |
| C/C(=N/NC(=O)c1ccc(S(N)(=O)=O)cc1)c1ccc(Cl)cc1 | 0.319 | 3.75 | 62.7 |  |  |  |
| NS(=O)(=O)c1ccc(C(=O)N/N=C\c2ccc(Br)cc2)cc1 | 2.21 | 1.37 | 27.7 |  |  |  |
| O=C(O)c1ccc(N/N=C(/CS(=O)(=O)c2ccccc2)c2ccc(Br)cc2)cc1 | > 100 |  |  | > 100 | > 100 | > 100 |
| NS(=O)(=O)c1ccc(C(=O)N/N=C(/CS(=O)(=O)c2ccccc2)c2ccccc2)cc1 | 0.769 | 10.7 | 84.8 |  |  |  |
| NS(=O)(=O)c1ccc(C(=O)N/N=C(/CS(=O)(=O)c2ccccc2)c2ccc(Cl)cc2)cc1 | 0.818 | 57 | 25.6 |  |  |  |
| NS(=O)(=O)c1ccc(N/N=C(\C(=O)c2ccccc2)S(=O)(=O)c2ccccc2)cc1 | 1.61 | 1.74 | 14.1 |  |  |  |
| NS(=O)(=O)c1ccc(N/N=C(/CS(=O)(=O)c2ccccc2)c2ccccc2)cc1 | 2.49 | 3.97 | 46.1 |  |  |  |
| NS(=O)(=O)c1ccc(C(=O)N/N=C\c2ccc(F)cc2)cc1 | 2.37 | 9.17 | 35.9 |  |  |  |
| C/C(=N/NC(=O)c1ccc(S(N)(=O)=O)cc1)c1ccc(Br)cc1 | 0.962 | 2.29 | 37.6 |  |  |  |
| NS(=O)(=O)c1ccc(C(=O)N/N=C(/CS(=O)(=O)c2ccccc2)c2ccc(F)cc2)cc1 | 1.12 | 0.62 | 63.7 |  |  |  |
| NS(=O)(=O)c1ccc(N/N=C(/CS(=O)(=O)c2ccccc2)c2ccc(Cl)cc2)cc1 | 2.91 | 8.01 | 28.6 |  |  |  |
| NS(=O)(=O)c1ccc(N/C=C(\C(=O)c2ccccc2)S(=O)(=O)c2ccccc2)cc1 | 2.76 | 3.44 | 17.9 |  |  |  |
| C/C(=N/NC(=O)c1ccc(S(N)(=O)=O)cc1)c1ccc(F)cc1 | 1.45 | 31.9 | 22 |  |  |  |
| O=C(O)c1ccc(N/C=C(\C(=O)c2ccc(Br)cc2)S(=O)(=O)c2ccccc2)cc1 | > 100 |  |  | > 100 |  | > 100 |
| C/C(=N/NC(=O)c1ccc(S(N)(=O)=O)cc1)c1ccccc1 | 0.322 | 20.1 | 31.1 |  |  |  |
| O=C(O)c1ccc(N/N=C(/CS(=O)(=O)c2ccccc2)c2ccccc2)cc1 | > 100 |  |  |  |  | > 100 |
| NS(=O)(=O)c1ccc(C(=O)N/N=C\c2ccc(Cl)cc2)cc1 | 2.09 | 36.7 | 82 |  |  |  |
| NS(=O)(=O)c1ccc(C(=O)N/N=C(/CS(=O)(=O)c2ccccc2)c2ccc(Br)cc2)cc1 | 0.289 | 19.1 | 34.1 |  |  |  |
| O=C(O)c1ccc(N/C=C(\C(=O)c2ccccc2)S(=O)(=O)c2ccccc2)cc1 | > 100 |  |  | > 100 | > 100 | > 100 |
| O=C(O)c1ccc(N/N=C(\C(=O)c2ccccc2)S(=O)(=O)c2ccccc2)cc1 | > 100 |  |  | > 100 | > 100 | > 100 |
| O=C(O)c1ccc(N/C=C(\C(=O)c2ccc(Cl)cc2)S(=O)(=O)c2ccccc2)cc1 | > 100 |  |  | > 100 | > 100 | > 100 |
| NS(=O)(=O)c1ccc(N/N=C(/CS(=O)(=O)c2ccccc2)c2ccc(Br)cc2)cc1 | 0.909 | 17.3 | 12.9 |  |  |  |
| NS(=O)(=O)c1ccc(C(=O)N/N=C\c2ccccc2)cc1 | 0.869 | 14.9 | 39.4 |  |  |  |
| O=C(O)c1ccc(N/N=C(/CS(=O)(=O)c2ccccc2)c2ccc(Cl)cc2)cc1 | > 100 |  |  | > 100 |  |  |
| O=c1[nH]cc(F)c(=O)[nH]1 [FLUOROURACIL] |  | 12.5 | 17.2 |  |  |  |
